Columns and labels:
Blood [1] = assay: Drug metabolism in human whole blood assessed as (R)-2-amino-3-((2-(3,3-dinitroazetidin-1-yl)-2-oxoethyl)thio)propanoic acid] formation at 20 uM by LC-MS/MS method; assay type: ADME, tissue-based
Blood [2] = assay: Drug metabolism in human whole blood assessed as [(R)-2-(2-amino-3-((2-(3,3-dinitroazetidin-1-yl)-2-oxoethyl)thio)propanamido)acetic acid] formation at 20 uM by LC-MS/MS method; assay type: ADME, tissue-based
Blood [3] = assay: Drug metabolism in human whole blood assessed as [(S)-2-amino-5-(((R)-1-((carboxymethyl)amino)-3-((2-(3,3-dinitroazetidin-1-yl)-2-oxoethyl)thio)-1-oxopropan-2-yl)amino)-5-oxopentanoic acid] formation at 20 uM by LC-MS/MS method; assay type: ADME, tissue-based
Blood [4] = assay: Drug metabolism in rat whole blood assessed as [(S)-2-amino-5-(((R)-1-((carboxymethyl)amino)-3-((2-(3-(hydroxyimino)azetidin-1-yl)-2-oxoethyl)thio)-1-oxopropan-2-yl)amino)-5-oxopentanoic acid] formation at 20 uM by LC-MS/MS method; assay type: ADME, tissue-based
Blood [5] = assay: Drug metabolism in rat whole blood assessed as (R)-2-amino-3-((2-(3,3-dinitroazetidin-1-yl)-2-oxoethyl)thio)propanoic acid] formation at 20 uM by LC-MS/MS method; assay type: ADME, tissue-based
[6] = Binding affinity to monkey hemoglobin assessed as protein bound compound level at 1 uM; assay type: ADME, Macaca mulatta; conditions: rhesus monkey, read-out: PB (converted)
[7] = Ratio of drug level in rat blood to rat plasma at 1 uM after 30 mins; assay type: ADME, cell-free; conditions: whole blood
[8] = Binding affinity to monkey hemoglobin assessed as protein bound compound level at 20 uM; assay type: ADME, Macaca mulatta; conditions: rhesus monkey, read-out: PB (converted)
[9] = Drug excretion in Wistar Hanover rat feces at 10 mg/kg, iv administered as single dose measured on day 1; assay type: ADME, organism-based; parameters: dose 10 mg/kg, route intravenous; conditions: faeces, read-out: Drug excretion
[10] = Ratio of drug level in human blood to human plasma at 1 uM after 30 mins; assay type: ADME; conditions: whole blood
[11] = Binding affinity to dog hemoglobin assessed as protein bound compound level at 1 uM; assay type: ADME, Canis lupus familiaris; conditions: read-out: PB (converted)
Blood [12] = assay: Drug metabolism in rat whole blood assessed as [(S)-2-amino-5-(((R)-1-((carboxymethyl)amino)-3-((2-(3-nitroazetidin-1-yl)-2-oxoethyl)thio)-1-oxopropan-2-yl)amino)-5-oxopentanoic acid] formation at 20 uM by LC-MS/MS method; assay type: ADME, tissue-based
[13] = Stability in water; assay type: physicochemical; conditions: buffer
[14] = Ratio of drug level in monkey blood to monkey plasma at 1 uM after 30 mins; assay type: ADME, Macaca mulatta; conditions: rhesus monkey, whole blood
[15] = Ratio of drug level in human blood to human plasma at 20 uM after 30 mins; assay type: ADME; conditions: whole blood
Blood [16] = assay: Drug level in Wistar Hanover rat blood at 10 mg/kg, iv administered as single dose after 24 hrs; assay type: ADME, organism-based; parameters: dose 10 mg/kg, route intravenous; conditions: in vivo
[17] = Binding affinity to human hemoglobin assessed as protein bound compound level at 1 uM; assay type: ADME; conditions: read-out: PB (converted)
Plasma [18] = assay: AUC (0 to t) in Wistar Hanover rat plasma at 10 mg/kg, iv administered as single dose; assay type: ADME, organism-based; parameters: dose 10 mg/kg, route intravenous; conditions: in vivo
Blood [19] = assay: Retention time in human whole blood in presence of 0.1% formic acid in water at 20 uM by LC-MS/MS method; assay type: ADME, tissue-based
[20] = Drug excretion in Wistar Hanover rat feces at 10 mg/kg, iv administered as single dose measured on day 7; assay type: ADME, organism-based; parameters: dose 10 mg/kg, route intravenous; conditions: faeces, read-out: Drug excretion
Blood [21] = assay: Drug metabolism in human whole blood assessed as [(S)-2-amino-5-(((R)-1-((carboxymethyl)amino)-1-oxo-3-((2-oxo-2-(3-oxoazetidin-1-yl)ethyl)thio)propan-2-yl)amino)-5-oxopentanoic acid] formation at 20 uM by LC-MS/MS method; assay type: ADME, tissue-based
[22] = Ratio of drug level in dog blood to dog plasma at 1 uM after 30 mins; assay type: ADME, Canis lupus familiaris; conditions: whole blood
[23] = Drug excretion in Wistar Hanover rat urine at 10 mg/kg, iv administered as single dose after 168 hrs; assay type: ADME, organism-based; parameters: dose 10 mg/kg, route intravenous; conditions: read-out: Drug excretion
Blood [24] = assay: Drug metabolism in human whole blood assessed as [(S)-2-amino-5-(((R)-1-((carboxymethyl)amino)-3-((2-(3-nitroazetidin-1-yl)-2-oxoethyl)thio)-1-oxopropan-2-yl)amino)-5-oxopentanoic acid] formation at 20 uM by LC-MS/MS method; assay type: ADME, tissue-based
Blood [25] = assay: Drug metabolism in rat whole blood assessed as [(S)-2-amino-5-(((R)-1-((carboxymethyl)amino)-3-((2-(3,3-dinitroazetidin-1-yl)-2-oxoethyl)thio)-1-oxopropan-2-yl)amino)-5-oxopentanoic acid] formation at 20 uM by LC-MS/MS method; assay type: ADME, tissue-based
Blood [26] = assay: Drug metabolism in rat whole blood assessed as [(R)-2-amino-3-((2-(3-nitroazetidin-1-yl)-2-oxoethyl)thio)propanoic acid] formation at 20 uM by LC-MS/MS method; assay type: ADME, tissue-based
[27] = Volume of distribution in Wistar Hanover rat plasma at 10 mg/kg, iv administered as single dose; assay type: ADME, organism-based; parameters: dose 10 mg/kg, route intravenous
Blood [28] = assay: Drug metabolism in rat whole blood assessed as [(S)-2-amino-5-(((R)-1-((carboxymethyl)amino)-1-oxo-3-((2-oxo-2-(3-oxoazetidin-1-yl)ethyl)thio)propan-2-yl)amino)-5-oxopentanoic acid] formation at 20 uM by LC-MS/MS method; assay type: ADME, tissue-based
Blood [29] = assay: Retention time in human whole blood in presence of 0.1% formic acid in acetonitrile at 20 uM by LC-MS/MS method; assay type: ADME, tissue-based
Blood [30] = assay: Retention time in rat whole blood in presence of 0.1% formic acid in acetonitrile at 20 uM by LC-MS/MS method; assay type: ADME, tissue-based
[31] = Volume of distribution in Wistar Hanover rat blood at 10 mg/kg, iv administered as single dose; assay type: ADME, organism-based; parameters: dose 10 mg/kg, route intravenous; conditions: whole blood
Stomach = assay: Drug level in Wistar Hanover rat stomach at 10 mg/kg, iv administered as single dose after 24 hrs; assay type: ADME, organism-based; parameters: dose 10 mg/kg, route intravenous; conditions: in vivo
[32] = Stability in pH 7.0 buffer; assay type: physicochemical
Blood [33] = assay: Drug metabolism in rat whole blood assessed as [(R)-2-(2-amino-3-((2-(3,3-dinitroazetidin-1-yl)-2-oxoethyl)thio)propanamido)acetic acid] formation at 20 uM by LC-MS/MS method; assay type: ADME, tissue-based
[34] = Drug level in Wistar Hanover rat bile at 10 mg/kg, iv administered as single dose after 24 hrs; assay type: ADME, organism-based; parameters: dose 10 mg/kg, route intravenous; conditions: in vivo
[35] = Ratio of drug level in blood to plasma in Wistar Hanover rat at 10 mg/kg, iv administered as single dose after 0.083 hrs; assay type: ADME, organism-based; parameters: dose 10 mg/kg, route intravenous; conditions: whole blood and plasma
[36] = Drug excretion in Wistar Hanover rat feces at 10 mg/kg, iv administered as single dose measured on day 2; assay type: ADME, organism-based; parameters: dose 10 mg/kg, route intravenous; conditions: faeces, read-out: Drug excretion
[37] = Half life in Wistar Hanover rat plasma at 10 mg/kg, iv administered as single dose; assay type: ADME, organism-based; parameters: dose 10 mg/kg, route intravenous
[38] = Ratio of drug level in dog blood to dog plasma at 20 uM after 30 mins; assay type: ADME, Canis lupus familiaris; conditions: whole blood
Blood [39] = assay: Drug metabolism in human whole blood assessed as [(S)-2-amino-5-(((R)-1-((carboxymethyl)amino)-3-((2-(3-(hydroxyimino)azetidin-1-yl)-2-oxoethyl)thio)-1-oxopropan-2-yl)amino)-5-oxopentanoic acid] formation at 20 uM by LC-MS/MS method; assay type: ADME, tissue-based
Blood [40] = assay: Retention time in rat whole blood at 20 uM by LC-MS/MS method; assay type: ADME, tissue-based
[41] = Ratio of drug level in rat blood to rat plasma at 20 uM after 30 mins; assay type: ADME, cell-free; conditions: whole blood
Blood [42] = assay: Drug level in Wistar Hanover rat blood at 10 mg/kg, iv administered as single dose after 168 hrs relative to total radioactivity; assay type: ADME, organism-based; parameters: dose 10 mg/kg, route intravenous; conditions: in vivo
Plasma [43] = assay: AUC (0 to infinity) in Wistar Hanover rat plasma at 10 mg/kg, iv administered as single dose; assay type: ADME, organism-based; parameters: time infinity, dose 10 mg/kg, route intravenous; conditions: in vivo
Blood [44] = assay: Retention time in human whole blood at 20 uM by LC-MS/MS method; assay type: ADME, tissue-based
Blood [45] = assay: Drug metabolism in human whole blood assessed as [(R)-2-amino-3-((2-(3-nitroazetidin-1-yl)-2-oxoethyl)thio)propanoic acid] formation at 20 uM by LC-MS/MS method; assay type: ADME, tissue-based
[46] = Drug excretion in Wistar Hanover rat urine at 10 mg/kg, iv administered as single dose after 0 to 8 hrs; assay type: ADME, organism-based; parameters: dose 10 mg/kg, route intravenous; conditions: read-out: Drug excretion
Nucleic Acid = assay: Ratio of drug level in blood to plasma in Wistar Hanover rat at 10 mg/kg, iv administered as single dose after 168 hrs; assay type: ADME, organism-based; parameters: dose 10 mg/kg, route intravenous; conditions: in vivo
[47] = Half life in Wistar Hanover rat blood at 10 mg/kg, iv administered as single dose; assay type: ADME, organism-based; parameters: dose 10 mg/kg, route intravenous; conditions: whole blood
Blood [48] = assay: AUC (0 to t) in Wistar Hanover rat blood at 10 mg/kg, iv administered as single dose; assay type: ADME, organism-based; parameters: dose 10 mg/kg, route intravenous; conditions: in vivo
[49] = Binding affinity to rat hemoglobin assessed as protein bound compound level at 20 uM; assay type: ADME; conditions: read-out: PB (converted)
[50] = Binding affinity to human hemoglobin assessed as protein bound compound level at 20 uM; assay type: ADME; conditions: read-out: PB (converted)
[51] = Ratio of drug level in monkey blood to monkey plasma at 20 uM after 30 mins; assay type: ADME, Macaca mulatta; conditions: rhesus monkey, whole blood
Blood [52] = assay: Retention time in rat whole blood in presence of 0.1% formic acid in water at 20 uM by LC-MS/MS method; assay type: ADME, tissue-based
Blood [53] = assay: Drug level in Wistar Hanover rat blood at 10 mg/kg, iv administered as single dose after 168 hrs; assay type: ADME, organism-based; parameters: dose 10 mg/kg, route intravenous; conditions: in vivo
[54] = Binding affinity to rat hemoglobin assessed as protein bound compound level at 1 uM; assay type: ADME; conditions: read-out: PB (converted)

SMILES: O=C(CBr)N1CC([N+](=O)[O-])([N+](=O)[O-])C1 [NIBROZETONE]
- Drug metabolism (Blood [1]): metabolite_detected
- Drug metabolism (Blood [2]): metabolite_detected
- Drug metabolism (Blood [3]): metabolite_detected
- Drug metabolism (Blood [4]): metabolite_detected
- Drug metabolism (Blood [5]): metabolite_detected
- fraction unbound at 1 µM [6]: 0.902
- blood plasma ratio at 0.5 h, 1 µM [7]: 2.1
- fraction unbound at 20 µM [8]: 0.8
- dose excreted [9]: 1.5%
- blood plasma ratio at 0.5 h, 1 µM [10]: 1
- fraction unbound at 1 µM [11]: 0.77
- Drug metabolism (Blood [12]): metabolite_detected
- Stability [13]: Stable
- blood plasma ratio at 0.5 h, 1 µM [14]: 0.82
- blood plasma ratio at 0.5 h, 20 µM [15]: 0.99
- Drug uptake (Blood [16]): 76500 ngequiv/g
- fraction unbound at 1 µM [17]: 0.71
- AUCt (Plasma [18]): 160000 ngequiv.hr/g
- Retention_time (Blood [19]): 12.8 min
- dose excreted [20]: 0.06%
- Drug metabolism (Blood [21]): metabolite_detected
- blood plasma ratio at 0.5 h, 1 µM [22]: 0.83
- dose excreted at 168 h [23]: 36.3%
- Drug metabolism (Blood [24]): metabolite_detected
- Drug metabolism (Blood [25]): metabolite_detected
- Drug metabolism (Blood [26]): metabolite_detected
- Vd [27]: 0.926 L/kg
- Drug metabolism (Blood [28]): metabolite_detected
- Retention_time (Blood [29]): 15.1 min
- Retention_time (Blood [30]): 15.1 min
- Vd [31]: 0.084 L/kg
- Drug uptake (Stomach): Not Active
- Stability [32]: Stable
- Drug metabolism (Blood [33]): metabolite_detected
- Drug uptake [34]: Not Active
- blood plasma ratio at 0.083 h [35]: 12.4
- dose excreted [36]: 0.3%
- half-life [37]: 66.1 h
- blood plasma ratio at 0.5 h, 20 µM [38]: 1.2
- Drug metabolism (Blood [39]): metabolite_detected
- Retention_time (Blood [40]): 15.4 min
- blood plasma ratio at 0.5 h, 20 µM [41]: 4
- Drug uptake (Blood [42]): 61.8%
- AUC (Plasma [43]): 200000 ngequiv.hr/g
- Retention_time (Blood [44]): 15.4 min
- Drug metabolism (Blood [45]): metabolite_detected
- dose excreted [46]: 26%
- Ratio (Nucleic Acid): 222
- half-life [47]: > 168 h
- AUCt (Blood [48]): 14900000 ngequiv.hr/g
- fraction unbound at 20 µM [49]: 0.21
- fraction unbound at 20 µM [50]: 0.78
- blood plasma ratio at 0.5 h, 20 µM [51]: 1.5
- Retention_time (Blood [52]): 12.8 min
- Drug uptake (Blood [53]): 69600 ngequiv/g
- fraction unbound at 1 µM [54]: 0.31
